The record followed here is PMC9393241, “Design, Synthesis, and Activity Assays of Cyclin-Dependent Kinase 1 Inhibitors With Flavone Scaffolds” (Frontiers in Chemistry, 2022).

Each structure is given as a SMILES string.

One data set addresses T1, CDK1/cyclin B1 (Homo sapiens, UniProt P06493).
T1 construct: purchased
Kind of data set: In vitro anti-CDK1/cyclin B1 kinase assay (Kinase-Glo luminescence). In kind it is biochemical. As to conditions: for inhibition at 20 µM: test compounds at 20 μM, read-out: Inhibition rates (%) CDK1; for Selectivity: CDK1 compared with CDK4 (CDK4 IC50 / CDK1 IC50). The procedure:
(§1) In vitro anti-CDK1/cyclin B1 and CDK4/cyclin D3 assays were performed as described by the manufacturer. All test compounds and controls were dissolved in dimethyl sulfoxide (DMSO) to prepare 50 μM stock solutions. The stock solutions were diluted by double-distilled water and buffer to 40, 30, 20, and 10 μM working concentrations and stored at −20°C. Buffer, ATP, CDK substrate […], and distilled water were mixed, and then 25 μl of the mixture was added to a 96-well plate. Five microliters of 20 μM test compounds were sequentially added. CDK1/cyclin B1 was diluted to 1 ng/μl, and CDK4/cyclin D3 was diluted to 10 ng/μl using a buffer. Twenty microliters of the kinase solutions were incubated with the test compounds at 30°C for 45 min for CDK1/cyclin B1 and for 60 min for CDK4/cyclin D3. Finally, 50 μl of Kinase-Glo Max reagent was added to each well. The 96-well plate was covered with aluminum foil and incubated at room temperature for 15 min. Luminescence of the test compounds was measured with a microplate reader.

A further data set has as its target T2, CDK4/cyclin D3 (Homo sapiens, UniProt P11802).
T2 construct: purchased
Kind of data set: In vitro anti-CDK4/cyclin D3 kinase assay (Kinase-Glo luminescence). In kind it is biochemical. As to conditions: for inhibition at 20 µM: test compounds at 20 μM, read-out: Inhibition rates (%) CDK4. Here is the method: as §1

T2 sequence (P11802 whole entry): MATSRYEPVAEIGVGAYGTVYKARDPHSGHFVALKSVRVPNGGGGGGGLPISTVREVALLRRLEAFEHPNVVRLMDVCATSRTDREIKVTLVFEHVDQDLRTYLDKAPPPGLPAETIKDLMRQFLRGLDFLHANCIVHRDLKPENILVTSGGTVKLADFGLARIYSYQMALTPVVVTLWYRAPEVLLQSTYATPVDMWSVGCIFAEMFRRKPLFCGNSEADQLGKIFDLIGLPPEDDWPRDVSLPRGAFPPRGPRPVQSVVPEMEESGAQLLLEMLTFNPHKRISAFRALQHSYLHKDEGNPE
T2 sequence (P30281 whole entry partner): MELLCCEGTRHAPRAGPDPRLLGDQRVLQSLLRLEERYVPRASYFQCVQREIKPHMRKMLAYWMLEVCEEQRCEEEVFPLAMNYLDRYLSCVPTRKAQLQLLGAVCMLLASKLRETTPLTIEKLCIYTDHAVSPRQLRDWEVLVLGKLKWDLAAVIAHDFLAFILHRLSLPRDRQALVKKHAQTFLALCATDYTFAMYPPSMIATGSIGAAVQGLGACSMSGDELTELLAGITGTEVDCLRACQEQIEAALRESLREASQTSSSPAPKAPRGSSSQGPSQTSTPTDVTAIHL
T1 sequence (P06493 whole entry): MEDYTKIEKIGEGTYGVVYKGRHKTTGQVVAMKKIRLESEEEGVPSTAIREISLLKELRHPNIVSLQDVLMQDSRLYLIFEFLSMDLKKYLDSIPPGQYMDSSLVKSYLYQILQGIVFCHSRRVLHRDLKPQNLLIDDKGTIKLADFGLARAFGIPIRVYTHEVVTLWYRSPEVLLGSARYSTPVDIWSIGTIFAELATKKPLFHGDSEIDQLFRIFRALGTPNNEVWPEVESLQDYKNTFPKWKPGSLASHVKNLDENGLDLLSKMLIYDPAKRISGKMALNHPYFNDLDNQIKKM
T1 sequence (P14635 whole entry partner): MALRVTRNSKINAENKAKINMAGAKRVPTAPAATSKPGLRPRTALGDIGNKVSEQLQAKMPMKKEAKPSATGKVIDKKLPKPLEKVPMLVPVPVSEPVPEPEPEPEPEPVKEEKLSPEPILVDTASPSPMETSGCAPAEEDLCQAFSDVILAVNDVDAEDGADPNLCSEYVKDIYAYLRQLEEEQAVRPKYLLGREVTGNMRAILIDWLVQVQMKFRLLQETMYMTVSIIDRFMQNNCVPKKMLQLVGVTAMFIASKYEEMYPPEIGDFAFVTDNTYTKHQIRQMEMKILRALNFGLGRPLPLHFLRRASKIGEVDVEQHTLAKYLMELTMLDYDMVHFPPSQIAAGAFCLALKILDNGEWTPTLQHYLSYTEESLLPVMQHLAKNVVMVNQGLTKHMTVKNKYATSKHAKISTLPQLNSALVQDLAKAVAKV

For `O=c1cc(-c2ccccc2)oc2c(CN3CCOCC3)c(O)c(O)c(O)c12` [Compound 1a], the inhibition at 20 µM worked out at 25.48 ± 0.11% at CDK1/cyclin B1 and 6.71 ± 0.07% at CDK4/cyclin D3.
The corresponding values for `O=c1cc(-c2ccccc2)oc2c(CN3CCSCC3)c(O)c(O)c(O)c12` [Compound 1b] are 31.71 ± 0.08% and 0.09 ± 0.03%.
As to `CN(C)Cc1c(O)c(O)c(O)c2c(=O)cc(-c3ccccc3)oc12` [Compound 1c], the inhibition at 20 µM on CDK1/cyclin B1 was determined as 29.28 ± 0.11%.
For `CCCN(CCC)Cc1c(O)c(O)c(O)c2c(=O)cc(-c3ccccc3)oc12` [Compound 1d], the inhibition at 20 µM at CDK1/cyclin B1 was found to be 31.11 ± 0.1%; on CDK4/cyclin D3 it was 2.47 ± 0.08%.
`O=c1cc(-c2ccccc2)oc2c(CN3CCSCC3)c3c(c(O)c12)OCCCCO3` [Compound 2b, 12-Hydroxy-9-phenyl-7-(thiomorpholinomethyl)-2,3,4,5-tetrahydro-[1,4]dioxocino[2,3-g]chromen-11-one] displayed a melting point of 202.3 to 203.6 °C. Besides, the inhibition at 20 µM at CDK1/cyclin B1 stood at 27.19 ± 0.07%. For the same compound, the inhibition at 20 µM at CDK4/cyclin D3 came to 10.18 ± 0.08%.
`CN(C)Cc1c2c(c(O)c3c(=O)cc(-c4ccccc4)oc13)OCCCCO2` [Compound 2c, 7-((Dimethylamino)methyl)-12-hydroxy-9-phenyl-2,3,4,5-tetrahydro-[1,4]dioxocino[2,3-g]chromen-11-one] showed a melting point of 208.5 to 210.6 °C. Besides, the inhibition at 20 µM at CDK1/cyclin B1 was found to be 29.4 ± 0.09%. Besides, the inhibition at 20 µM on CDK4/cyclin D3 was 10.96 ± 0.09%.
Regarding `O=c1cc(-c2ccccc2)oc2c(CN3CCOCC3)c(OCc3ccccc3)c(O)c(O)c12` [Compound 3a, 7-(Benzyloxy)-5,6-dihydroxy-8-(morpholinomethyl)-2-phenyl-4H-chromen-4-one], the melting point was in the range of 218.3 to 219.8 °C. Further, on CDK1/cyclin B1, the IC50 is 42.2 ± 1.62 µM, the Selectivity came out at 12.88 and the inhibition at 20 µM was determined as 38.11 ± 0.09%. Moreover, at CDK4/cyclin D3, the IC50 came out at 543.8 ± 4.83 µM and the inhibition at 20 µM turned out to be 2.73 ± 0.06%.
Turning to `CCCN(CCC)Cc1c(OCCCCBr)c(O)c(O)c2c(=O)cc(-c3ccccc3)oc12` [Compound 3b, 7-(4-Bromobutoxy)-8-((dipropylamino)methyl)-5,6-dihydroxy-2-phenyl-4H-chromen-4-one], the melting point was in the range of 216.2 to 221.8 °C. In addition, on CDK1/cyclin B1, the inhibition at 20 µM was determined as 25.33 ± 0.11%. In addition, at CDK4/cyclin D3, the inhibition at 20 µM was 6.01 ± 0.07%.
For `O=c1cc(-c2ccccc2)oc2cc(O)c(CN3CCCC3)c(O)c12` [Compound 4a, 5,7-Dihydroxy-2-phenyl-6-(pyrrolidin-1-ylmethyl)-4H-chromen-4-one], the melting point was 195.2 to 196.3 °C. Moreover, on CDK1/cyclin B1, the inhibition at 20 µM is 31.72 ± 0.1%.
In turn, `CN1CCN(Cc2c(O)cc3oc(-c4ccccc4)cc(=O)c3c2O)CC1` [Compound 4b, 5,7-Dihydroxy-6-((4-methylpiperazin-1-yl)methyl)-2-phenyl-4H-chromen-4-one] displayed a melting point of 179.5 to 180.1 °C. Besides, the inhibition at 20 µM on CDK1/cyclin B1 was 28.14 ± 0.12%.
In turn, `O=c1cc(-c2ccccc2)oc2c(CN3CCCC3)c(O)c(CN3CCCC3)c(O)c12` [Compound 5a, 5,7-Dihydroxy-2-phenyl-6,8-bis(pyrrolidin-1-ylmethyl)-4H-chromen-4-one] yielded a melting point of 194.9 to 196.6 °C. Further, the inhibition at 20 µM at CDK1/cyclin B1 came out at 29 ± 0.12%. On CDK4/cyclin D3, the inhibition at 20 µM was determined as 7.22 ± 0.08%.
Take `O=c1cc(-c2ccccc2)oc2c(CN3CC=CC3)c(O)c(CN3CC=CC3)c(O)c12` [Compound 5b, 6,8-Bis((2H-pyrrol-1(5H)-yl)methyl)-5,7-dihydroxy-2-phenyl-4H-chromen-4-one]: the melting point fell in the range of 172.7 to 174.3 °C. In addition, on CDK1/cyclin B1, the inhibition at 20 µM turned out to be 28.66 ± 0.11%.
With `O=c1cc(-c2ccccc2)oc2c(CN3CCSCC3)c(O)c(CN3CCSCC3)c(O)c12` [Compound 5d, 5,7-Dihydroxy-2-phenyl-6,8-bis(thiomorpholinomethyl)-4H-chromen-4-one], the melting point lay in the range of 211 to 212.4 °C. The inhibition at 20 µM at CDK1/cyclin B1 is 30.39 ± 0.09%.
In the case of `CN1CCN(Cc2c(O)c(CN3CCN(C)CC3)c3oc(-c4ccccc4)cc(=O)c3c2O)CC1` [Compound 5e, 5,7-Dihydroxy-6,8-bis((4-methylpiperazin-1-yl)methyl)-2-phenyl-4H-chromen-4-one], the inhibition at 20 µM at CDK1/cyclin B1 is 26.75 ± 0.1%.
Regarding `O=c1cc(-c2ccccc2)oc2cc(OCc3ccccc3)cc(O)c12` [Compound 7a, 7-(Benzyloxy)-5-hydroxy-2-phenyl-4H-chromen-4-one], at CDK1/cyclin B1, the midpoint of inhibition, the IC50, lay at 55 ± 1.45 µM; the Selectivity worked out at 2.37; the inhibition at 20 µM was 39.51 ± 0.06%. This compound showed an IC50 against CDK4/cyclin D3 of 130 ± 2.84 µM.
Regarding `COc1cc(O)c2c(=O)cc(-c3ccccc3)oc2c1` [Compound 7b, 5-Hydroxy-7-methoxy-2-phenyl-4H-chromen-4-one], the inhibition at 20 µM stood at 21.27 ± 0.09% at CDK1/cyclin B1 and 1.76 ± 0.05% on CDK4/cyclin D3.
Regarding `O=c1cc(-c2ccccc2)oc2cc(OCCBr)cc(O)c12` [Compound 7c, 7-(2-Bromoethoxy)-5-hydroxy-2-phenyl-4H-chromen-4-one], the melting point lay within 169.3 to 170.1 °C. Further, the inhibition at 20 µM on CDK1/cyclin B1 stood at 22.74 ± 0.11%.
`COc1cc2oc(-c3ccccc3)cc(=O)c2c(O)c1CN1CCOCC1` [Compound 8a, 5-Hydroxy-7-methoxy-6-(morpholinomethyl)-2-phenyl-4H-chromen-4-one] came in with a melting point of 187 to 188.6 °C. Also, on CDK1/cyclin B1, the inhibition at 20 µM came to 31.04 ± 0.1%.
`COc1cc2oc(-c3ccccc3)cc(=O)c2c(O)c1CN1CCSCC1` [Compound 8b, 5-Hydroxy-7-methoxy-2-phenyl-6-(thiomorpholinomethyl)-4H-chromen-4-one] had a melting point of 210.3 to 212 °C. Also, the inhibition at 20 µM at CDK1/cyclin B1 came to 20.47 ± 0.08%.
`COc1ccc(-c2cc(=O)c3c(O)c(CN4CCSCC4)c(O)c(CN4CCSCC4)c3o2)cc1` [Compound 10b, 5,7-Dihydroxy-2-(4-methoxyphenyl)-6,8-bis(thiomorpholinomethyl)-4H-chromen-4-one]: the melting point lay within 214.2 to 215.5 °C. Also, the inhibition at 20 µM at CDK1/cyclin B1 came out at 29.54 ± 0.11%.
In the same order, the values of `COc1ccc(-c2cc(=O)c3c(O)cc(O)c(CN4CCSCC4)c3o2)cc1` [Compound 11a, 5,7-Bihydroxy-2-(4-methoxyphenyl)-8-(thiomorpholinomethyl)-4H-chromen-4-one] are 211 to 213.4 °C and 26.12 ± 0.1%.
Take `COc1ccc(-c2cc(=O)c3c(O)cc(OC)cc3o2)cc1` [Compound 12b, 5-Hydroxy-7-methoxy-2-(4-methoxyphenyl)-4H-chromen-4-one]: the inhibition at 20 µM at CDK1/cyclin B1 came out at 32.4 ± 0.11%; on CDK4/cyclin D3, 7.93 ± 0.08%.
For `COc1ccc(-c2cc(=O)c3c(O)cc(O)cc3o2)cc1` [acacetin, reference compound], at CDK1/cyclin B1, the IC50 was 31.9 ± 1.08 µM, the Selectivity turned out to be 6.45 and the inhibition at 20 µM is 34.64 ± 0.11%. At CDK4/cyclin D3, it took 206 ± 3.61 µM to reach half-maximal inhibition (IC50) and the inhibition at 20 µM was determined as 10.44 ± 0.07%.
With `O=c1cc(-c2ccccc2)oc2cc(O)c(O)c(O)c12` [baicalein, reference compound], at CDK1/cyclin B1, the IC50 amounted to 62.7 ± 1.52 µM, the Selectivity came out at 5.65 and the inhibition at 20 µM is 18.85 ± 0.09%. On CDK4/cyclin D3, this compound returned a half-maximal inhibitory concentration (IC50) of 354 ± 5.67 µM.
For the compound `O=c1cc(-c2ccccc2)oc2cc(O)cc(O)c12` [chrysin, reference compound], at CDK1/cyclin B1, inhibition was half-maximal at 36.6 ± 1.23 µM (IC50), the Selectivity was found to be 6.13 and the inhibition at 20 µM came to 32.77 ± 0.09%. The same compound registered an IC50 at CDK4/cyclin D3 of 225 ± 3.46 µM.
